Values quoted from earlier work as cited in patent US20220127231A1, “PROCESS FOR THE PREPARTION OF AMIFAMPRIDINE PHOSPHATE” (SHILPA MEDICARE LTD, priority 2020, published 2022).

Tests used:
[1] = 1% solution in water at 25° C.

In the case of `Nc1ccncc1N` [Amifampridine phosphate], the “pH of 1% solution in water” value [1] is given as 4.6±0.2, the “solubility in dimethyl sulfoxide” value (dimethyl sulfoxide) is given as “slightly soluble” and the solubility in dimethylformamide (dimethylformamide) is given as “very slightly soluble”. The solubility in ethanol (ethanol) was “very slightly soluble”, the “solubility in glacial acetic acid” value (glacial acetic acid) was “slightly soluble” and the solubility in methanol (methanol) was “slightly soluble”. For the same compound, the solubility in water (water) was “practically soluble”.
